In PubChem BioAssay (NCI) one finds TGI and GI50 data, which are given here for 13 compounds.

Several values for one entry are separate records, joined by “and”; a condition that tells them apart may be missing. Equal values may be shown once.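 1) Cells in 96-well plates. 2) Compound, 48 h, 5 concentrations. 3) Linear interpolation between surrounding doses. 4) Unreached endpoint = highest concentration. Here, GI50 denotes the concentration required for 50% inhibition of growth. At the TGI there is no net growth.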

Test systems include 786-0 renal; HL-60(TB) leukemia; HT29 colon; MDA-MB-231 breast; MDA-MB-435; NCI-H226 lung; OVCAR-8 ovarian; PC-3 prostate; SK-OV-3 ovarian; UACC-62 melanoma.
Common to all, as to assay: NCI tumour cell line growth inhibition, 48 h

For the compound `O=C(O)CCNc1ccccc1C(=O)O`, the TGI in the test on 786-0 renal, in the test on HL-60(TB) leukemia, in the test on HT29 colon, in the test on MDA-MB-231 breast, in the test with MDA-MB-435 and with NCI-H226 lung was greater than 100 µM each time. In addition, the TGI in the test on OVCAR-8 ovarian, in the test on PC-3 prostate, in the test on SK-OV-3 ovarian and in the test on UACC-62 melanoma was greater than 100 µM each time.
Turning to `COc1c(C=O)c2c(c(OC)c1OC)-c1ccc(OC)c(=O)cc1[C@@H](NC(C)=O)CC2`, the TGI was greater than 75.6 µM in the test on 786-0 renal; 0.0717 µM in the test with HL-60(TB) leukemia; greater than 8.89 µM with HT29 colon; greater than 100 µM with MDA-MB-231 breast; 24.6 µM with MDA-MB-435; 4.17 µM in the test with NCI-H226 lung. Moreover, the TGI was greater than 14.4 µM with OVCAR-8 ovarian, greater than 100 µM in the test on PC-3 prostate, 23.1 µM with SK-OV-3 ovarian and greater than 92.3 µM in the test with UACC-62 melanoma.
`Nc1ccc2c(c1)C(=O)C(=O)c1c-2nc2ccccn12`: the GI50 in the test on 786-0 renal was 2.24 µM; with HL-60(TB) leukemia, 1.96 µM; in the test on HT29 colon, 3.97 µM; in the test with MDA-MB-231 breast, 1.75 µM; in the test with MDA-MB-435, 0.186 µM; in the test with NCI-H226 lung, 1.72 µM. Also, the GI50 in the test on OVCAR-8 ovarian was 1.29 µM; in the test on PC-3 prostate, 1.78 µM; with SK-OV-3 ovarian, 2.64 µM; in the test with UACC-62 melanoma it was 0.266 µM. In addition, the TGI with 786-0 renal was found to be 4.86 µM; in the test on HL-60(TB) leukemia, 5.46 µM; in the test on HT29 colon, 34.9 µM; in the test on MDA-MB-231 breast, 4.96 µM; in the test on MDA-MB-435, 0.352 µM; with NCI-H226 lung, 3.75 µM. Further, the TGI turned out to be 3.23 µM in the test on OVCAR-8 ovarian, 10.5 µM in the test with PC-3 prostate, 7.62 µM with SK-OV-3 ovarian and 0.782 µM with UACC-62 melanoma.
Turning to `O=C(O)C/C(=C\c1ccco1)C(=O)O`, the TGI in the test with 786-0 renal, with HL-60(TB) leukemia, in the test with HT29 colon, in the test with MDA-MB-231 breast, in the test with MDA-MB-435 and in the test with NCI-H226 lung was greater than 100 µM throughout. Besides, the TGI in the test with OVCAR-8 ovarian, in the test with PC-3 prostate, with SK-OV-3 ovarian and with UACC-62 melanoma was greater than 100 µM in each case.
As to `CCN1CCN(Cc2ccc(-c3cc4c(N[C@H](C)c5ccccc5)ncnc4[nH]3)cc2)CC1`, the GI50 in the test with 786-0 renal was 2.02 µM and 1.91 µM; in the test with HL-60(TB) leukemia it was 2.83 µM and 4 µM; in the test with HT29 colon it was 1.99 µM and 2.41 µM; in the test with MDA-MB-231 breast, 2.08 µM and 2.88 µM; in the test with MDA-MB-435, 1.95 µM and 2.74 µM; in the test on NCI-H226 lung, 3.03 µM and 7.73 µM. The GI50 is 3.5 µM and 8.1 µM in the test with OVCAR-8 ovarian; 2.24 µM and 5.07 µM in the test with PC-3 prostate; 0.299 µM with SK-OV-3 ovarian; 2.09 µM and 3.75 µM in the test on UACC-62 melanoma. Besides, the TGI in the test with 786-0 renal was 8.93 µM and 7.74 µM; with HL-60(TB) leukemia, 7.91 µM and > 10 µM; in the test with HT29 colon, 8.77 µM and > 10 µM; with MDA-MB-231 breast, 8.3 µM and > 10 µM; in the test with MDA-MB-435, 4.63 µM and 8.4 µM; with NCI-H226 lung it was 24.7 µM and > 10 µM. The TGI was 33 µM and > 10 µM with OVCAR-8 ovarian; 18.7 µM and > 10 µM in the test on PC-3 prostate; 11.1 µM in the test with SK-OV-3 ovarian; 5.36 µM and > 10 µM with UACC-62 melanoma.
For `C[C@@H]1COCCN1c1cc(C2([S@](C)(=N)=O)CC2)nc(-c2ccnc3[nH]ccc23)n1`, the GI50 with 786-0 renal was 1.39 µM and 2.03 µM; with HL-60(TB) leukemia it was 1.95 µM and 3.39 µM; in the test on HT29 colon, 4.27 µM and 4.99 µM; with MDA-MB-231 breast, 7.28 µM and 7.53 µM; with MDA-MB-435, 3.74 µM and 4.29 µM; in the test with NCI-H226 lung, 4.98 µM and 8.53 µM. Also, the GI50 in the test with OVCAR-8 ovarian is 6.65 µM and > 10 µM; with PC-3 prostate, 12.2 µM and > 10 µM; with SK-OV-3 ovarian, 2.7 µM and 4.51 µM; in the test on UACC-62 melanoma, 2.34 µM and 1.76 µM. The TGI with 786-0 renal was 16.1 µM and > 10 µM; in the test with HL-60(TB) leukemia, 12.8 µM and > 10 µM; in the test on HT29 colon it was greater than 100 µM; in the test with MDA-MB-231 breast, greater than 100 µM; in the test with MDA-MB-435, 35.7 µM and > 10 µM; with NCI-H226 lung, 51.3 µM and > 10 µM. In addition, the TGI is greater than 84.5 µM with OVCAR-8 ovarian; greater than 100 µM in the test with PC-3 prostate; 27.9 µM and > 10 µM with SK-OV-3 ovarian; 16.6 µM and > 10 µM with UACC-62 melanoma.
Take `Nc1c(C(=O)c2cccc(CCCN3CCOCC3)c2)cnn1-c1ccc(F)cc1`: the GI50 with 786-0 renal, in the test with HL-60(TB) leukemia, with HT29 colon, in the test with MDA-MB-231 breast, in the test with MDA-MB-435 and with NCI-H226 lung was greater than 25 µM in each case. Besides, the GI50 with OVCAR-8 ovarian, in the test with PC-3 prostate, in the test on SK-OV-3 ovarian and with UACC-62 melanoma was greater than 25 µM in each case. In addition, the TGI with 786-0 renal, in the test with HL-60(TB) leukemia, in the test with HT29 colon, in the test on MDA-MB-231 breast, in the test with MDA-MB-435 and with NCI-H226 lung was greater than 25 µM throughout. The TGI with OVCAR-8 ovarian, in the test on PC-3 prostate, with SK-OV-3 ovarian and in the test on UACC-62 melanoma was greater than 25 µM each time.
Take `CCOC(=O)c1ccc2[nH]c(-c3ccc(S(=O)(=O)F)cc3)cc(=O)c2c1`: the TGI in the test on 786-0 renal, with HL-60(TB) leukemia, in the test on HT29 colon, with MDA-MB-231 breast, in the test with MDA-MB-435 and in the test with NCI-H226 lung was greater than 100 µM each time. Also, the TGI in the test on OVCAR-8 ovarian was greater than 100 µM; in the test on PC-3 prostate, greater than 100 µM; in the test on SK-OV-3 ovarian, greater than 100 µM; in the test on UACC-62 melanoma, 76.2 µM.
`CCCCON(OC(=O)c1ccccc1)C(=O)c1ccccc1`: the GI50 in the test on 786-0 renal is greater than 100 µM; in the test on HL-60(TB) leukemia, 88.7 µM; in the test with HT29 colon, greater than 100 µM; in the test on MDA-MB-231 breast, greater than 100 µM; in the test on MDA-MB-435, greater than 100 µM; in the test on NCI-H226 lung, greater than 100 µM. Also, the GI50 in the test with OVCAR-8 ovarian, in the test on PC-3 prostate, with SK-OV-3 ovarian and with UACC-62 melanoma was greater than 100 µM throughout. In addition, the TGI in the test with 786-0 renal, with HL-60(TB) leukemia, in the test on HT29 colon, in the test with MDA-MB-231 breast, in the test with MDA-MB-435 and in the test on NCI-H226 lung was greater than 100 µM each time. For the same compound, the TGI in the test on OVCAR-8 ovarian, in the test with PC-3 prostate, with SK-OV-3 ovarian and in the test with UACC-62 melanoma was greater than 100 µM throughout.
As for `COc1cc2c3c(n(CCCN)c(=O)c2cc1OC)-c1ccccc1C3=O`, the GI50 in the test on 786-0 renal is 0.396 µM; in the test with HL-60(TB) leukemia, 5.09 µM; in the test with HT29 colon, 0.164 µM; with MDA-MB-231 breast, 1.23 µM; in the test on MDA-MB-435, 0.755 µM; with NCI-H226 lung, 4.31 µM. Besides, the GI50 with OVCAR-8 ovarian was 0.455 µM; in the test with PC-3 prostate, 0.723 µM; in the test on SK-OV-3 ovarian it was 5.62 µM; in the test on UACC-62 melanoma it was 1.73 µM. The TGI with 786-0 renal is 2.02 µM; in the test on HL-60(TB) leukemia, greater than 100 µM; in the test with MDA-MB-231 breast it was 3.02 µM; in the test on MDA-MB-435 it was 18.9 µM; in the test on NCI-H226 lung it was 16.1 µM; with OVCAR-8 ovarian, 6.65 µM. Also, the TGI in the test on PC-3 prostate amounted to 2.69 µM; in the test with SK-OV-3 ovarian it was 23 µM; in the test on UACC-62 melanoma, 16 µM.
For `CC12CCC3C(CCC4Cc5[nH]c6ccccc6c5CC43C)C1CCC2O` (stereo not drawn), the GI50 in the test with 786-0 renal is 0.835 µM; with HL-60(TB) leukemia it was 0.381 µM; in the test on HT29 colon, 1.58 µM; with MDA-MB-231 breast, 2.09 µM; in the test with MDA-MB-435 it was 0.241 µM; with NCI-H226 lung, 6.08 µM. The GI50 is 4.1 µM with OVCAR-8 ovarian, 3.13 µM in the test on PC-3 prostate, 2.81 µM in the test with SK-OV-3 ovarian and 0.284 µM in the test on UACC-62 melanoma. For the same compound, the TGI in the test with HL-60(TB) leukemia was 2.33 µM; in the test with HT29 colon, greater than 27.1 µM; in the test on MDA-MB-231 breast it was 7.16 µM; in the test on MDA-MB-435, 0.717 µM; in the test with NCI-H226 lung, greater than 100 µM; with OVCAR-8 ovarian, greater than 100 µM. For the same compound, the TGI is greater than 100 µM in the test on PC-3 prostate, greater than 100 µM in the test with SK-OV-3 ovarian and 2.35 µM in the test with UACC-62 melanoma.
With `Cc1cccc(NC(=O)CCc2ccc(N3C(N)=NC(N)=NC3(C)C)cc2)c1`, the GI50 in the test on 786-0 renal is 18.9 µM; in the test on HL-60(TB) leukemia it was 0.641 µM; in the test on HT29 colon, 0.364 µM; in the test on MDA-MB-231 breast it was greater than 65.2 µM; in the test with MDA-MB-435 it was 0.56 µM; in the test with NCI-H226 lung it was greater than 64.7 µM. Further, the GI50 in the test on OVCAR-8 ovarian is 13.6 µM; in the test on PC-3 prostate, 0.089 µM; in the test with SK-OV-3 ovarian it was greater than 62.9 µM; with UACC-62 melanoma it was 2.37 µM. For the same compound, the TGI in the test on 786-0 renal, in the test on HL-60(TB) leukemia, in the test with HT29 colon, in the test with MDA-MB-231 breast, in the test on MDA-MB-435 and in the test with NCI-H226 lung was greater than 100 µM throughout. The TGI with OVCAR-8 ovarian is greater than 100 µM; in the test on PC-3 prostate it was greater than 66.4 µM; in the test on SK-OV-3 ovarian it was greater than 100 µM; with UACC-62 melanoma it was greater than 100 µM.
In the case of `COc1cccc(C2c3cc4c(cc3OC(C)(N3CCCC3)C2C)OCO4)c1OC` (stereo not drawn), the TGI in the test with 786-0 renal is greater than 100 µM; in the test on HL-60(TB) leukemia, 22.8 µM; in the test on HT29 colon, 22.3 µM; with MDA-MB-231 breast, 52.9 µM; in the test with MDA-MB-435 it was 49.3 µM; in the test with NCI-H226 lung it was 58.5 µM. For the same compound, the TGI was found to be 98.1 µM in the test with OVCAR-8 ovarian, 41.2 µM with PC-3 prostate, 69.6 µM in the test on SK-OV-3 ovarian and 51.5 µM with UACC-62 melanoma.
